Experimental data as given in US8383637B2, “2-amino-quinazoline derivatives useful as inhibitors of β-secretase (BACE)” (Jansssen Pharmaceutica N.V., priority 2004, dated 2013).

Target: T1, β-secretase(BACE) (Homo sapiens, UniProt P56817)
T1 construct: purchased Panvera
Assay: BACE FS1% Inhibition Assay
Type: biochemical
Conditions: FS1 substrate
Method: BACE FS1% Inhibition Assay The following reagents were used in this assay: sodium acetate, PEG8000 (Sigma), DMSO, HEPES, FS1 substrate [[…]] […] The FS1-substrate stock solution was prepared in DMSO as a 10 mg/mL solution. The FS1-substrate working solution was prepared by diluting the 10 mg/mL stock solution with substrate assay buffer to a final concentration of 300 μg/mL. The β-secretase (BACE) working solution was prepared by diluting a 0.83 mg/mL BACE stock solution with enzyme assay buffer to a final concentration of 4 μg/mL. Test compounds were dissolved in DMSO to 10 mM. […] The screening procedure for this assay was as follows: 15 μL of BACE working solution was pipetted into each well of a 96-well plate. To each well was then pipetted 2 μL of test compound at the selected concentration. Test compound and BACE were then mixed with a pipettor and incubated for 20 min at room temperature. To each well was then added 10 μL of the FS1 substrate working solution. The plates were then incubated for 1 hour at room temperature. […] The procedure for the blank was as follows. 15 μL of assay buffer was pipetted into each well to be used as a blank control. To each well was then added 2 μL of vehicle and 10 μL of FS1-substrate working solution. The plates were then incubated for 1 hour at room temperature. […] The procedure for the positive control was as follows: 15 μL of BACE working solution was pipetted into each well to be used as a positive control. To each well was then pipetted 2 μL of vehicle. Vehicle and BACE were then mixed with a pipettor and incubated for 20 min at room temperature. To each well was then added 10 μL of the FS1 substrate working solution. The plates were then incubated for 1 hour at room temperature. […] For test compounds, % inhibition was determined at each concentration as follows: [formula]

T1 sequence (P56817 46-501): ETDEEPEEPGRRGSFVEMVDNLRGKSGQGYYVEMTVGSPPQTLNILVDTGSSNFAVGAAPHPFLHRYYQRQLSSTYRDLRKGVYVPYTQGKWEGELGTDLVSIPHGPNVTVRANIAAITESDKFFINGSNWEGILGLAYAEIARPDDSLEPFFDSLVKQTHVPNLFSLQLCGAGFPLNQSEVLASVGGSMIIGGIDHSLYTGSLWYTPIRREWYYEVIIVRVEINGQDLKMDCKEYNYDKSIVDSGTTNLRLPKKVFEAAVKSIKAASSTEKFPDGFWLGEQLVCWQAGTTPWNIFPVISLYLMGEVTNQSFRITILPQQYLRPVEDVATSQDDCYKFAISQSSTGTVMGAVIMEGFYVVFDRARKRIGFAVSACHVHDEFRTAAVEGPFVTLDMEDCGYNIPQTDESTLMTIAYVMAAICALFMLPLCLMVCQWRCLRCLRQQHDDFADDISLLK

Compound | % Inhibition (FS) 3 μM (3 μM test compound) | % Inhibition (FS) 10 μM (10 μM test compound) | also measured
COC(=O)C1CCCC(N(C)C(=O)CCC(C2CCCCC2)N2Cc3cc(Oc4ccccc4)ccc3N=C2N)C1 (mixture of isomers) [Compound 777] |  |  | % Inhibition (FS) (0.3 μM test compound): 38%; % Inhibition (FS) (1 μM test compound): 97%; % Inhibition (FS) (3 μM test compound): 123%
COc1ccc(-c2ccc3c(c2)CN(C(CCC(=O)N(C)C2CCCCC2)C2CCCCC2)C(N)=N3)cc1 (racemic) [Compound 226] | 54% |  | % Inhibition (FS) 0.3 μM (0.3 μM test compound): <30%; % Inhibition (FS) 1 μM (1 μM test compound): <30%
CCC(c1cccc(C(=O)N(C)C2CCCCC2)c1)N1Cc2cc(-c3ccccc3OC)ccc2N=C1N (racemic) [Compound 395] | 118% |  | % Inhibition (FS) 0.3 μM (0.3 μM test compound): 69%; % Inhibition (FS) 1 μM (1 μM test compound): 107%
CCCC(CCCC(=O)NC1CCCCC1)N1Cc2cc(Oc3ccccc3)ccc2N=C1N (stereo not drawn) [Compound 91] | 68% | 117% | 
NC1=Nc2ccc(Oc3ccccc3)cc2CN1CCCCNC(=O)C1CCCCC1 [Compound 115] | 40% | 105% | 
NC1=Nc2ccc(Oc3ccccc3)cc2CN1CCCCNC(=O)C1CCCC1 [Compound 116] | 39% | 81% | 
CN(C(=O)c1ccc2c(c1)C(N1Cc3cc(Oc4ccccc4)ccc3N=C1N)c1ccccc1-2)C1CCCCC1 (stereo not drawn) [Compound 118] |  |  | % Inhibition (FS) 3 μM (3 μM test compound, 3 µM): 48%; % Inhibition (FS) 10 μM (10 μM test compound, 10 µM): 91%
NC1=Nc2ccc(Oc3ccccc3)cc2CN1C1CCN(C(=O)C2CCCCC2)C1 (stereo not drawn) [Compound 119] | 42% | 75% | 
NC1=Nc2ccc(Oc3ccccc3)cc2CN1C1CCN(C(=O)C2CCCC2)C1 (stereo not drawn) [Compound 120] | <30% | 34% | 
NC1=Nc2ccc(Oc3ccccc3)cc2CN1C1c2ccccc2-c2cccc(C(=O)N(C3CCCCC3)C3CCCCC3)c21 (stereo not drawn) [Compound 124] | 56% | 67% | 
CN(C(=O)c1ccc2c(c1)C(N1Cc3cc(Oc4ccccc4)ccc3N=C1N)c1ccccc1-2)C1CCCCC1 (stereo not drawn) [Compound 125, 9-(2-Amino-6-phenoxy-4H-quinazolin-3-yl)-9H-fluorene-2-carboxylic acid cyclohexyl-methyl-amide] |  |  | inhibition at 3 µM (3 μM test compound, read-out: % Inhibition (FS) 3 μM): 42%; inhibition at 10 µM (10 μM test compound, read-out: % Inhibition (FS) 10 μM): 80%
CCCC(CCC(=O)NC1CCCCCC1)N1Cc2cc(Oc3ccccc3)ccc2N=C1N (stereo not drawn) [Compound 128] | 97% | 108% | 
NC1=Nc2ccc(Oc3ccccc3)cc2CN1C(c1ccccc1)c1cccc(C(=O)N(C2CCCCC2)C2CCCCC2)c1 (stereo not drawn) [Compound 132] | 54% | 118% | 
NC1=Nc2ccc(Oc3ccccc3)cc2CN1CCNC(=O)C1CC1c1ccccc1 (stereo not drawn) [Compound 139] | <30% | 61% | 
CCCCCCCCCC(=O)NCCN1Cc2cc(Oc3ccccc3)ccc2N=C1N [Compound 142] | <30% | 38% | 
NC1=Nc2ccc(Oc3ccccc3)cc2CN1CCCNC(=O)C1CC1 [Compound 143] | <30% | 32% | 
NC1=Nc2ccc(Oc3ccccc3)cc2CN1CCCNC(=O)C1CCC1 [Compound 144] | 39% | 59% | 
CN(C(=O)c1ccc2c(c1)C(N1Cc3cc(Oc4ccccc4)ccc3N=C1N)CC2)C1CCCCC1 (stereo not drawn) [Compound 145] | <30% | 37% | 
